Measurements as given in patent US10982192B2, “Method for the induction of arterial-type of hemogenic endothelium from hPSCS” (Wisconsin Alumni Research Foundation, priority 2017, dated 2021).

Columns and labels:
HES1 = test: qPCR of NOTCH1 target gene HES1 in D4 HE; type: cell-based, human; conditions: D4 HE cultured for 12 hours (D4+0.5)
Method: (§1) Human pluripotent stem cells, H1 hESC line, DF19-9-7T fibroblast-hiPSC line, IISH2i-BM9 bone marrow-iPSC line, and IISH3i-CB6 cord blood-iPSC line, were maintained and passaged in chemically defined conditions using vitronectin and E8 medium, as previously described^85. The human PSCs were differentiated into hematoendothelial lineages using a modified protocol previously described^35. On Day −1, hPSCs were singularized and plated on collagen IV-coated plates (0.5 μg/cm^2) at a cell density of 7,500 cells/cm^2 in E8 medium supplemented with 10 uM Rock inhibitor (Y-27632, Cayman Chemicals). On Day 0, the medium was changed to IF9S medium supplemented with BMP4, FGF2 (50 ng/ml), Activin A (15 ng/ml, Peprotech), LiCl (2 mM, Sigma), and ROCK inhibitor (0.5 μM, Cayman Chemicals) and cultured in hypoxia (5% O2, 5% CO2). […] A sample of the purified cells was analyzed by flow cytometry, and experiments were continued only if the purity of the HE was over 95% CD144^+. […]
Cells were differentiated for the respective days and sorted on a FACS Aria II. RNA was collected using RNA MiniPrep Plus (Invitrogen) and quantified on a NanoDrop (GE Healthcare). […] The reactions were run on a Mastercycler RealPlex Thermal Cycler (Eppendorf) and the expression levels were calculated by minimal cycle threshold values (Ct) normalized to the reference expression of RPL13a. […]

[1] = test system: D4 CD144+CD43-CD73- HE cells; test: Flow cytometry of CD144/CD43 in secondary culture of D4 HE (hematopoiesis/EHT), serum- and feeder-free; type: cell-based, human
Method: Human pluripotent stem cells, H1 hESC line, DF19-9-7T fibroblast-hiPSC line, IISH2i-BM9 bone marrow-iPSC line, and IISH3i-CB6 cord blood-iPSC line, were maintained and passaged in chemically defined conditions using vitronectin and E8 medium, as previously described^85. The human PSCs were differentiated into hematoendothelial lineages using a modified protocol previously described^35. On Day −1, hPSCs were singularized and plated on collagen IV-coated plates (0.5 μg/cm^2) at a cell density of 7,500 cells/cm^2 in E8 medium supplemented with 10 uM Rock inhibitor (Y-27632, Cayman Chemicals). On Day 0, the medium was changed to IF9S medium supplemented with BMP4, FGF2 (50 ng/ml), Activin A (15 ng/ml, Peprotech), LiCl (2 mM, Sigma), and ROCK inhibitor (0.5 μM, Cayman Chemicals) and cultured in hypoxia (5% O2, 5% CO2). On day 2, the medium was changed to IF9S medium supplemented with FGF2, VEGF (50 ng/ml, Peprotech), and 2.5 μM TGFβ inhibitor (SB-431542, Cayman Chemicals). On day 4, cell cultures were singularized and stained with anti-CD31 microbeads (Miltenyi) for 15 minutes. Cells were washed and HE were purified using CD31 antibody and MACS LS columns (Miltenyi). Purified CD31^+ HE were then plated at a density of 20,000 to 30,000 cells/cm^2 on collagen IV-coated plates (1 μg/cm^2) that were either co-coated with IgG-Fc fragments or human DLL1-Fc (made in-house), in IF9S medium supplemented with FGF2, VEGF, EGF, IGF-I, IGF-II, TPO, IL-6 (50 ng/ml), SCF (20 ng/ml), IL-3, FLT3L (10 ng/ml, Peprotech), and ROCK inhibitor (5 μM, Cayman Chemicals), and where specified, DMSO (1:1000, Fisher Scientific) or DAPT (10 μM, Cayman Chemicals), and cultured in normoxia (20% O2, 5% CO2). In some experiments, HE was cultured on plates co-coated with human JAG1-Fc (R&D Systems). A sample of the purified cells was analyzed by flow cytometry, and experiments were continued only if the purity of the HE was over 95% CD144^+. On Day 4+1, the medium was replaced with fresh medium containing the same supplements without ROCK inhibitor. […]

D4 HE = test: Single-cell deposition assay for endothelial-to-hematopoietic transition on OP9-iDLL4; type: cell-based, human; conditions: OP9-iDLL4 without DOX-pretreatment, DAPT 20 μM, compared to control condition
Method: One day before single-cell deposition, the OP9-iDLL4 cell line was treated with mitomycin C as described above, and passaged into 96-well plates at a density of 12,500 cells/cm2. OP9-iDLL4 used for the NOTCH activation condition was incubated with doxycycline for 24 hours after passaging into 96-well plates. On the day of single-cell sorting, OP9-iDLL4 medium was changed to αMEM with 10% FBS (GE), TPO, SCF, IL-6 (50 ng/ml), IL-3, FLT3L (10 ng/ml), and DMSO (1:500) for the control, and NOTCH activation conditions, or DAPT (20 μM) for the NOTCH inhibition condition. Day 4 differentiated human pluripotent stem cells were singularized, stained for CD309-PE and CD144-APC (Miltenyi Biotech), and single-cell sorted into individual wells of the 96-well plates using a FACS Aria II. To exclude possibility of doublets, we used a low density (less than 1 million cells/ml) cells suspension, sorting speed less than 1000 cellular events/per second and stringent gating on single cells using both FSC-A vs FSC-H and SSC-A vs SSC-H. One day after sorting, the medium was changed to fresh medium without DMSO or DAPT, and extra medium was added every 3 days. […]

D4 HE cells = test: Annexin V flow cytometric analysis of apoptosis; type: cell-based, human; conditions: D4+4
NOTCH1 = test: Western blot of activated cleaved NOTCH1 (NOTCH:ICD) in D4 HE; type: cell-based, human; conditions: D4 HE cultured for 24 h (D4+1); DAPT 10 μM or immobilized DLL1-Fc
Method: as §1, with “CO2). On day 2, the medium was changed to IF9S medium supplemented with FGF2, VEGF (50 ng/ml, Peprotech), and 2.5 μM TGFβ inhibitor (SB-431542, Cayman Chemicals). On day 4, cell cultures were singularized and stained with anti-CD31 microbeads (Miltenyi) for 15 minutes. Cells were washed and HE were purified using CD31 antibody and MACS LS columns (Miltenyi).” for “CO2).”

[2] = test system: CD34+CD43-CD73- HE progenitors; conditions: NOTCH inhibition; cited from earlier work
Runx1+23 enhancer = test: Runx1+23-eGFP reporter flow cytometry; type: cell-based, human; conditions: D4 HE cultured with DAPT or on DLL1-Fc
Method: Runx1+23 enhancer fragment^33 was amplified by PCR and subsequently cloned into the AAVS-SA-2A-PURO vector (gift from Gadue Lab, The Children's Hospital of Philadelphia). Human ESCs were transfected with zinc-finger nuclease vectors and later puromycin-resistant individual cells were clonally expanded and on-targeted clones were selected, as previously described^38. Southern Blot (SB) analysis was performed by DIG-labeling hybridization (Roche). Briefly, 10 μg genomic DNA was digested using a EcoRV restriction enzyme for overnight, separated on a 0.7% agarose gel for 6 hours, transferred to a nylon membrane (Amersham), and incubated with DIG-labeling probes. The external probe is a DIG-labeled 600 nucleotide fragment that binds to the EcoRV-digested fragment of the 5′ external region. The internal probe is a DIG-labeled 700 nucleotide fragment that binds to the EcoRV-digested fragment of the of the eGFP region.
Flow Cytometry was conducted using the MACSQuant 10 (Miltenyi Biotech). FACS-sorting was conducted on a FACS Aria II (BD) as previously described^26, 35, 86.

D4+4 CD43+ cells = test: T-cell differentiation of D4+4 cultures on OP9-DLL4; type: cell-based, human
Method: Total D4+4 cultures were singularized, strained, and cultured in T-cell differentiation conditions on OP9-DLL4 for 3 weeks as described^35. For D5+4 cultures, only the floating hematopoietic cells were collected and cultured in T-cell differentiation conditions. Limiting Dilution Assays were conducted with the floating cells collected from D5+4 cultures (HE:DLL4^− on OP9+DAPT, OP9+DMSO, and OP9-DLL4, and HE:DLL4^+ on OP9-DLL4). Row A of a 96-well plate received 500 cells/well, and each subsequent row afterwards had half the previous row (Row B contained 250, Row C contained 125 . . . Row H contained 3-4 cells). The wells were scored 2 weeks later by eye and flow-cytometry for CD5^+CD7^+ containing cells. Positive threshold was set at 167 CD5^+CD7^+ cells/well. Extreme limiting dilution analysis was conducted using the previously established algorithm^88

D5 HE:DLL4- = test: Blood production from D5 HE:DLL4- in OP9 co-culture with NOTCH inhibition; type: cell-based, human; conditions: DAPT 20 μM
Method: (§2) OP9, OP9-DLL4, and the inducible OP9-iDLL4 (made in-house) cell lines were maintained in αMEM with 20% FBS (GE) on gelatin-coated plates in normoxia as previously described^86. Using TrypLE (Thermo), OP9 were passaged at a 1:8 ratio every 3-4 days when they were 80% confluent. One day before co-culture with differentiated human HE cells, OP9 lines were treated with mitomycin C (1 mg/ml) for 2 hours and then plated at a density of 12,500 cells/cm^2 as previously described^87. D4 HE cells or D5 CD144^+ subsets were plated onto OP9 lines at a density between 1000 to 2000 cells/cm^2 in medium containing αMEM with 10% FBS (GE), TPO, SCF, IL-6 (50 ng/ml), IL-3, and FLT3L (10 ng/ml). Medium was changed after 24 hours, and extra medium added 2 days later. Experiments conducted with DAPT were treated with 20 μM, while corresponding control conditions had DMSO added at a 1:500 dilution.

D5 HE:DLL4+ = test: Blood production from D5 HE:DLL4+ in OP9 co-culture with NOTCH inhibition; type: cell-based, human; conditions: treatment from D5 to D5+2, D5+2 to D5+4, and D5 to D5+4; 20 μM
Method: as §2

D4 CD31+ HE cells = test: CellTracer proliferation assay and EdU cell cycle analysis; type: cell-based, human
Method: D4 CD31^+ HE cells were incubated in PBS with CellTracer (1 μg/ml, Thermo) for 20 minutes at 37° C. After washing, the cells were plated on collagen IV-coated plates with either Fc-IgG or DLL1-Fc and the modified Day 4 medium, as described above, at a higher density of 30,000 to 40,000 cells/cm^2 due to toxicity from the CellTracer. Aliquots of the purified cells were analyzed by flow cytometry to determine the purity of the MACS cells and establish the Generation 0 peak for the proliferation assay. Secondary cultures were collected every day after plating for flow cytometry analysis, and calibration beads were used to generate compatible CellTracer results. After D4+4, FlowJo™ Analysis software was used to concatenate the data from each day. The average number of cell divisions was calculated based on the number of cells on each day (FIG. 1F) and applied to the proliferation platform algorithm in FlowJo™ to determine the specific generation gates. Those peaks were re-applied to individual sets of data to determine the percentage of each generation within the hematoendothelial populations. For cell cycle analysis, D4+4 cells were incubated in culture medium with EdU (10 μM, Thermo Fisher) for 2 hours and stained with CD43 and CD144 antibodies for 20 min. […]

[3] = test system: cells collected from D4+4 HE cultures; test: Hematopoietic colony forming unit assay; type: cell-based, human; conditions: cells from D4+4 HE cultures in methocellulose, vs control
Method: Hematopoietic colony forming unit assay was conducted in serum-containing H4436 Methocult (Stem Cell Technologies) as previously described^26, 35.

Q: Which results are given for `C[C@H](NC(=O)Cc1cc(F)cc(F)c1)C(=O)N[C@H](C(=O)OC(C)(C)C)c1ccccc1` [DAPT]?
A: HES1 mRNA expression (HES1): decreased; CD43+ HPs ([1]; each day from D4+1 to D4+4): decreased CD43+ HPs; CD43hi CD144- cells on D4+2 through D4+4 ([1]; treated for 24-hours from D4 to D4+1): significant drop; hematopoiesis ([1]; treatment throughout (D4 to D4+4)): more profoundly decreased hematopoiesis; ratio of hematopoietic/endothelial colonies (D4 HE): markedly decreased; apoptosis of blood cells post-transition (D4 HE cells): none of the conditions affected apoptosis; activated cleaved form of NOTCH1 (NOTCH1): decrease; production of CD45+ cells [2]: reduces production of CD45^+ cells; Runx1+23 enhancer activity (eGFP) (Runx1+23 enhancer): decreases; T-cell potential of HPs (D4+4 CD43+ cells): no T-cell potential; hematopoietic activity of HE:DLL4- cultures (D5 HE:DLL4-): no effect on hematopoietic activity; hematopoietic activity of the HE:DLL4+ population (D5 HE:DLL4+): significantly inhibited hematopoietic activity; cycling CD43+ cells (EdU) (D4 CD31+ HE cells; D4+4): no differences; distribution of CD43+ cells within each generation (D4 CD31+ HE cells; D4+4, treated through D4+4): no significant shift; total number of colonies [3]: significantly lower
